Test results published in US20220056018A1, “SREBP INHIBITORS COMPRISING A THIOPHENE CENTRAL RING” (Capulus Therapeutics, LLC, priority 2019, published 2022).

Tests used:
Assay in all cases: Cancer cell growth inhibition
Type in all cases: cell-based
SKMEL28 = conditions: Homo sapiens, SK-MEL-28; SKMEL28 (skin), 72 hr treatment
Method in brief: (§1)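 Steps: serially dilute compound 10-fold in DMSO across six stock levels (10 mM down to 0.1 uM); treat cells in growth media at 0.1% final DMSO for 72 hr; stain protein with sulforhodamine B; compute growth parameters from one data point per concentration.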

5637 = 5637 (bladder), 72 hr treatment
Method in brief: as §1

SU-DHL-6 = conditions: Homo sapiens; SU-DHL-6 (hematological), 72 hr treatment
Method in brief: as §1

COLO678 = conditions: Homo sapiens, COLO-678; COLO678 (colon), 72 hr treatment
Method in brief: as §1

PANC1 = conditions: Homo sapiens, PANC-1; PANC1 (pancreas), 72 hr treatment
Method in brief: as §1

SKMEL5 = conditions: Homo sapiens, SK-MEL-5; SKMEL5 (skin), 72 hr treatment
Method in brief: as §1

DU145 = conditions: Homo sapiens, DU-145; DU145 (prostate), 72 hr treatment
Method in brief: as §1

U2OS = conditions: Homo sapiens; U2OS (bone), 72 hr treatment
Method in brief: as §1

CASKI = conditions: Homo sapiens, Ca-Ski; CASKI (endometrial), 72 hr treatment
Method in brief: as §1

RAMOS = conditions: Homo sapiens; RAMOS (hematological), 72 hr treatment
Method in brief: as §1

JEG3 = conditions: Homo sapiens, JEG-3; JEG3 (placenta), 72 hr treatment
Method in brief: as §1

OVCAR3 = conditions: Homo sapiens, OVCAR-3; OVCAR3 (ovary), 72 hr treatment
Method in brief: as §1

HL-60 = conditions: Homo sapiens; HL-60 (hematological), 72 hr treatment
Method in brief: as §1

SKNAS = conditions: Homo sapiens, SK-N-AS; SKNAS (brain), 72 hr treatment
Method in brief: as §1

GRANTA-519 = conditions: Homo sapiens; GRANTA-519 (hematological), 72 hr treatment
Method in brief: as §1

HT1080 = conditions: Homo sapiens, HT-1080; HT1080 (connective tissue), 72 hr treatment
Method in brief: as §1

NCIH292 = conditions: Homo sapiens, NCI-H292; NCIH292 (lung), 72 hr treatment
Method in brief: as §1

SW620 = conditions: Homo sapiens, SW-620; SW620 (colon), 72 hr treatment
Method in brief: as §1

UO31 = conditions: Homo sapiens, UO-31; UO31 (kidney), 72 hr treatment
Method in brief: as §1

HS729 = HS729 (muscle), 72 hr treatment
Method in brief: as §1

IC50 (SKMEL28) | IC50 5637 | IC50 (SU-DHL-6) | IC50 (COLO678) | IC50 (PANC1) | IC50 (SKMEL5) | IC50 (DU145) | IC50 (U2OS) | IC50 (CASKI) | IC50 (RAMOS) | IC50 (JEG3) | IC50 (OVCAR3) | IC50 (HL-60) | IC50 (SKNAS) | IC50 (GRANTA-519) | IC50 (HT1080) | IC50 (NCIH292) | IC50 (SW620) | IC50 (UO31) | IC50 (HS729) | SMILES
< 10 µM | > 10 µM | < 10 µM | < 10 µM | < 10 µM | < 10 µM | > 10 µM | > 10 µM | > 10 µM | < 10 µM | < 10 µM | < 10 µM | < 10 µM | > 10 µM | > 10 µM | < 10 µM | < 10 µM | > 10 µM | > 10 µM | > 10 µM | CC(C)(O)Cc1cc(-c2csc(-c3ccc(NS(C)(=O)=O)cc3Cl)c2)ccn1 [Compound I-9004, N-(3-chloro-4-(4-(2-(2-hydroxy-2-methylpropyl)pyridin-4-yl)thiophen-2-yl)phenyl)methanesulfonamide]
< 10 µM | < 10 µM | < 10 µM | < 10 µM | < 10 µM | < 10 µM | > 10 µM | > 10 µM | > 10 µM | < 10 µM | < 10 µM | < 10 µM | < 10 µM | > 10 µM | > 10 µM | < 10 µM | < 10 µM | > 10 µM | > 10 µM | > 10 µM | CC(C)(CO)c1cc(-c2csc(-c3ccc(NS(C)(=O)=O)cc3Cl)c2)ccn1 [Compound I-8909, N-(3-chloro-4-(4-(2-(1-hydroxy-2-methylpropan-2-yl)pyridin-4-yl)thiophen-2-yl)phenyl)methanesulfonamide]
< 10 µM | < 10 µM | < 10 µM | < 10 µM | < 10 µM | < 10 µM | < 10 µM | < 10 µM | > 10 µM | < 10 µM | < 10 µM | < 10 µM | < 10 µM | > 10 µM | < 10 µM | < 10 µM | < 10 µM | < 10 µM | < 10 µM | > 10 µM | CS(=O)(=O)Nc1ccc(-c2cc(-c3ccnc4c3OCCO4)cs2)c(Cl)c1 [Compound I-9017, N-(3-chloro-4-(4-(2,3-dihydro-[1,4]dioxino[2,3-b]pyridin-8-yl)thiophen-2-yl)phenyl)methanesulfonamide]
